Source: PMC8008885 (Journal of Enzyme Inhibition and Medicinal Chemistry, 2021)
Where two headings read alike, the source gives them in different places.

Experiments:
SETDB1/ESET promoter = SETDB1/ESET promoter assay; format: cell-based; details: neuronal cells transfected with SETDB1 promoter construct, 0 to 20 µM
Protocol: STHdh^Q7/Q7 (wild type) and STHdh^Q111/Q111 (HD knock-in striatal cell line expresses mutant huntingtin at endogenous level) were generously provided from Dr. Marcy MacDonald (Harvard Medical School, Boston, MA)[35]. The SETDB1/ESET promoter assay was performed as previously described[24]^,[28]. Briefly, 2.5 × 10^5 cells were plated onto 48-well cell culture plates 24 h prior to the transfection of 200 ng of ETDB1/ESET promoter construct. DMRIE-C reagent (Invitrogen, Carlsbad, CA) was used as a transfection reagent and transfections were performed according to the manufacturer’s protocol. Nogalamycin and distamycin were purchased from Sigma-Aldrich (St. Louis, MO).
Moreover, the promoter assay was carried out.

[1] = Pharmacokinetics after intravenous and oral administration to SD rats; format: in vivo, Sprague-Dawley (SD) male rats; details: rat, 10 mg/kg; for Kp at 2 h: brain/plasma, read-out: Brain-to-plasma (B/P) ratio at 2 h; for half-life: read-out: Terminal half-life
Description: It is well known that the blood–brain barrier (BBB) is a key obstacle impeding the entry of drugs into the brain.

[2] = male, Sprague-Dawley, plasma, intravenous
[3] = male, Sprague-Dawley, plasma, oral
[4] = male, Sprague-Dawley, intravenous, plasma
[5] = male, Sprague-Dawley, oral, plasma

**Q.** For C=CCOc1cccc2nc(N3CCCC3)ccc12 [APQ, 5-allyloxy-2-(pyrrolidin-1-yl)quinoline], which “transcriptional activity of SETDB1 (promoter assay)” value (SETDB1/ESET promoter) is on record?
**A.** represses the transcriptional activity of SETDB1 in a dose-dependent manner

**Q.** And the Kp at 2 h ([1]; male, Sprague-Dawley, intravenous)?
**A.** 4.18

**Q.** What about the Kp at 2 h ([1]; male, Sprague-Dawley, oral) of the same molecule?
**A.** 0.44

**Q.** And the concentration at 2 h ([1]; male, Sprague-Dawley, brain, intravenous, read-out: Brain concentration at 2 h)?
**A.** 407 ng/mL

**Q.** And the concentration at 2 h ([1]; male, Sprague-Dawley, brain, oral, read-out: Brain concentration at 2 h)?
**A.** 3.7 ± 1.1 ng/mL

**Q.** And the MRT [1, 2]?
**A.** 1.6 h

**Q.** And the clearance [1, 2]?
**A.** 183 ± 26.1 mL/min/kg

**Q.** What about the concentration at 8 h [1, 2] of the same molecule?
**A.** 20 ng/mL

**Q.** What about the concentration at 2 h ([1]; male, Sprague-Dawley, plasma, intravenous, read-out: Plasma concentration at 2 h) of the same molecule?
**A.** 100 ng/mL

**Q.** And the half-life [1, 2]?
**A.** 2.55 ± 0.101 h

**Q.** And the Vd ([1]; male, Sprague-Dawley, plasma, intravenous, read-out: Vss)?
**A.** 25.6 ± 5.2 L/kg

**Q.** What about the bioavailability ([1]; male, Sprague-Dawley, plasma, oral vs intravenous, read-out: F (bioavailability)) of the same molecule?
**A.** 6.7%

**Q.** What about the Cmax [1, 3] of the same molecule?
**A.** 40 ± 10 ng/mL

**Q.** And the concentration at 8 h [1, 3]?
**A.** 0 ng/mL

**Q.** What about the Tmax ([1]; male, Sprague-Dawley, plasma, oral, median (range)) of the same molecule?
**A.** 1 h

**Q.** What about the concentration at 2 h ([1]; male, Sprague-Dawley, plasma, oral, read-out: Plasma concentration at 2 h) of the same molecule?
**A.** 10 ng/mL

**Q.** And the half-life [1, 3]?
**A.** 1.58 ± 0.223 h

**Q.** And the AUC(0-inf) [1, 4]?
**A.** 923 ng·h/mL

**Q.** And the AUC(0-t) [1, 4]?
**A.** 858 ng·h/mL

**Q.** And the AUC(0-inf) [1, 5]?
**A.** 61.7 ng·h/mL

**Q.** And the AUC(0-t) [1, 5]?
**A.** 60.7 ng·h/mL

**Q.** And the “Ae (excreted amount)” value ([1]; intravenous)?
**A.** 0.00%

**Q.** And the “Brain concentration at 2 h” value ([1]; intravenous)?
**A.** 406.6 ± 81.3 ng/mL

**Q.** What about the “Plasma concentration at 2 h” value ([1]; intravenous) of the same molecule?
**A.** 100 ± 10 ng/mL

**Q.** What about the “Ae (excreted amount)” value ([1]; oral) of the same molecule?
**A.** 0.00%
